Measured values as given in publication PMC6467995, “Phosphoregulation of the oncogenic protein regulator of cytokinesis 1 (PRC1) by the atypical CDK16/CCNY complex” (Experimental & Molecular Medicine, 2019).
pIC50: −log10 of the molar value.

Legend:
Assay type in all cases: biochemical
CDK16 (WT-GST-CDK16) [1] = biological target: T1, CDK16 (WT-GST-CDK16) (Homo sapiens, UniProt Q00536); test: in vitro kinase assay with [γ-32P]-ATP, dose response
T1 construct: N-terminal GST fusion, full-length, purified from E. coli; with CCNY

[2] = biological target: T2, CDK16 (analog-sensitive, AS-GST-CDK16) (Homo sapiens, UniProt Q00536, F240G); test: as above
T2 construct: N-terminal GST fusion, full-length, purified from E. coli; with CCNY

CDK16 (WT-GST-CDK16) [3] = biological target: T1, CDK16 (WT-GST-CDK16); test: in vitro kinase assay, thiophosphate transfer to CCNY

T1 sequence (Q00536 whole entry, the tested form may be a part): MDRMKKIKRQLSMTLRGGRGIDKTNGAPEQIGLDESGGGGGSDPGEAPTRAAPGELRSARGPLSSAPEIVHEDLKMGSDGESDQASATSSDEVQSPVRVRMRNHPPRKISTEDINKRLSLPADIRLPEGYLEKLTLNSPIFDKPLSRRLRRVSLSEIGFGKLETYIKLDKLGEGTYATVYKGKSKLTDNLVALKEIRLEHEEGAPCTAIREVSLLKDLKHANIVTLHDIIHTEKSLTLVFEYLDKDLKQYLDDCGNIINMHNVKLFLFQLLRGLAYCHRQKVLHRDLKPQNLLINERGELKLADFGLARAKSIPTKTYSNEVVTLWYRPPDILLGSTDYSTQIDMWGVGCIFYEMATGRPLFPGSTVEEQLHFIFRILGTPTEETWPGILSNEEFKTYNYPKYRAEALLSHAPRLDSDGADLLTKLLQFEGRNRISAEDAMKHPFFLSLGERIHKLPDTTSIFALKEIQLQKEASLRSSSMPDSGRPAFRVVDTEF
T1 sequence (Q8ND76 2-341 partner): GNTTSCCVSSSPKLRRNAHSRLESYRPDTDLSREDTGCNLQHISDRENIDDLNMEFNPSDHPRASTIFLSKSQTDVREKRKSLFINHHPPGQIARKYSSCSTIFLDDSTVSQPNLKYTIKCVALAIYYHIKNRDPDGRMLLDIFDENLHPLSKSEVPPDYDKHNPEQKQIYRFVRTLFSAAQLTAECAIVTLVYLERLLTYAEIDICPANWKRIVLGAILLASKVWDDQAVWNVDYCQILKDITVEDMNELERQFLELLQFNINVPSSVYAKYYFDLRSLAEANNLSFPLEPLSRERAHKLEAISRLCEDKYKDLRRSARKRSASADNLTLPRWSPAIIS
T2 sequence (Q00536 whole entry F240G, the tested form may be a part): as the sequence (Q00536 whole entry, the tested form may be a part) above, with F240G counted along it
T2 sequence (Q8ND76 2-341 partner): as the sequence (Q8ND76 2-341 partner) above

Row | pIC50 (CDK16 (WT-GST-CDK16) [1]) | pIC50 [2] | Compound | in vitro kinase assay, thiophosphate transfer to CCNY (CDK16 (WT-GST-CDK16) [3])
1 | 5.36 | 5.91 | Cc1cccc(Cc2nn(C(C)(C)C)c3ncnc(N)c23)c1 [3MBPP1, 1-(tert-butyl)-3-(3-methylbenzyl)-1H-pyrazolo[3,4-d]pyrimidin-4-amine] | 
2 |  |  | Nc1ncnc2c1ncn2[C@@H]1O[C@H](CO[P@](=O)(O)O[P@](=O)(O)O[P@@](=O)(O)S)[C@@H](O)[C@H]1O [ATPγS] | WT-CDK16 used ATPγS to phosphorylate GST-CCNY, it could not use the N^6-modified bulky forms
